Our source for the IC50 values is patent US20120264735A1 (priority 2009, published 2012).

Where only a bound is given, the exact number is not on record here.

The target of this assay is T1, c-Met kinase (recombinant c-Met) (Homo sapiens, UniProt P08581).
T1 construct: 0.27 nM recombinant c-Met
T1 sequence (P08581 25-1390): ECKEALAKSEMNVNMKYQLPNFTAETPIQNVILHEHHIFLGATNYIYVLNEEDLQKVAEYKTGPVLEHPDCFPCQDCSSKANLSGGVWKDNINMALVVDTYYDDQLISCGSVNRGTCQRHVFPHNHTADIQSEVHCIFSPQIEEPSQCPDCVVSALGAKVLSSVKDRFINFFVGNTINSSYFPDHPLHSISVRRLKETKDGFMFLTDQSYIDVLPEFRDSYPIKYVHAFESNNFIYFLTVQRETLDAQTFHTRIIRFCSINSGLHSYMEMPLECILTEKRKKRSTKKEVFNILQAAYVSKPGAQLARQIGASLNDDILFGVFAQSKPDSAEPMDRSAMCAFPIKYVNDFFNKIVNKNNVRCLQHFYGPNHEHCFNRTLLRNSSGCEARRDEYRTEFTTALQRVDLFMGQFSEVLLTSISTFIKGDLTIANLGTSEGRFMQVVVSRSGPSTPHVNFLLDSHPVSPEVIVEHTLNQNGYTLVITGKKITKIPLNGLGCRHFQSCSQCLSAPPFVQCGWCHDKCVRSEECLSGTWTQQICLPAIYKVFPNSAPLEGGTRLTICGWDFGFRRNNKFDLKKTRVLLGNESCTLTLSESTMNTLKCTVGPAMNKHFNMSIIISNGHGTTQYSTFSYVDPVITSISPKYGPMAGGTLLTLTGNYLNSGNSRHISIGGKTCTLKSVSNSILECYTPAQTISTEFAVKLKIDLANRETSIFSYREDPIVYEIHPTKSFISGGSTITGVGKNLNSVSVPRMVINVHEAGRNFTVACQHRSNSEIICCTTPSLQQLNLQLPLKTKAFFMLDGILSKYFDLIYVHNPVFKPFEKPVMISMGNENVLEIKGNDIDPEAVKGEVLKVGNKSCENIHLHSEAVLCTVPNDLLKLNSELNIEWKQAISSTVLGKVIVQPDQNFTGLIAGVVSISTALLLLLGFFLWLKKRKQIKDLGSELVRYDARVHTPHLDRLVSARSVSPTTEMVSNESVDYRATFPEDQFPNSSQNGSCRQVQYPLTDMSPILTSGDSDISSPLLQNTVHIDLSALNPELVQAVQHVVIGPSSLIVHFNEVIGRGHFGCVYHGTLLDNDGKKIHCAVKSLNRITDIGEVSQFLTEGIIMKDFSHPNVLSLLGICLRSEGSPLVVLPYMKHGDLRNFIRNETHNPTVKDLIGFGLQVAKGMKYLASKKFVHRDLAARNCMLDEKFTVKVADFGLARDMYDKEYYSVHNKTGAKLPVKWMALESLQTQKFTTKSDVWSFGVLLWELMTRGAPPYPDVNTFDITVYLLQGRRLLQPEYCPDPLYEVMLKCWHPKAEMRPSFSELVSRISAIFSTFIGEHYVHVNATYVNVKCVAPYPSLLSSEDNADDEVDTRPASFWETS
Description: In vitro kinase assay I (homogeneous time-resolved fluorescence tyrosine kinase assay). The class given is biochemical. How it is done: The kinase activities of c-Met are measured using a modified version of the homogeneous-time-resolved tyrosine kinase assay described by Park et al. (1999, Anal. Biochem. 269:94-104).
The procedure for determining the potency of a compound to inhibit c-Met kinase comprises the following steps: • 1. Prepare 3-fold serial diluted compound solutions in 100% dimethyl sulfoxide (DMSO) at 20× of the desired final concentrations in a 384-well plate. • 2. Prepare a master reaction mix containing 6.67 mM MgCl2, 133.3 mM NaCl, 66.7 mM Tris-HCl (pH 7.4), 0.13 mg/ml BSA, 2.67 mM dithiothreitol, 0.27 nM recombinant c-Met and 666.7 nM biotinylated synthetic peptide substrate (biotin-ahx-EQEDEPEGDYFEWLE-CONH2) (SEQ.ID.NO.:1). • 3. In a black assay plate, add 1.5 μl of compound solution (or DMSO) and 22.5 μl of master reaction mix per well. Initiate the kinase reaction by adding 6 μl of 0.25 mM MgATP per well. Allow the reactions to proceed for 60 min at room temperature. The final conditions for the reaction are 0.2 nM c-Met, 0.5 μM substrate, 50 μM MgATP, 5 mM MgCl2, 100 mM NaCl, 2 mM DTT, 0.1 mg/ml BSA, 50 mM Tris (pH 7.4) and 5% DMSO. • 4. Stop the kinase reaction with 30 μl of Stop/Detection buffer containing 10 mM EDTA, 25 mM HEPES, 0.1% TRITON X-100, 0.750 nM Eu-chelate labeled anti-phosphotyrosine antibody PY20 (cat. #AD0067, PerkinElmer) and 50 μg/ml Streptavidin-allophycocyanin conjugate (cat. #PJ25S, Prozyme). • 5. Read HTRF signals on a Victor reader (PerkinElmer) in HTRF mode after 60-min incubation at room temperature in the dark. • 6. IC50 is determined by fitting the observed relationship between compound concentration and HTRF signal with a 4-parameter logistic equation. II. GTL-16 pY1349 Cell-Based Assay
Regarding `Cn1cc(-n2ccc(=O)c(Cc3cccc(-c4ncc(N5CCC6CCCCC6C5)cn4)c3)n2)cn1` (mixture of isomers) [Example 443, 1-(1-methyl-1H-pyrazol-4-yl)-3-{3-[5-(octahydroiso-quinolin-2(1H)-yl)pyrimidin-2-yl]benzyl}pyridazin-4(1H)-one], the IC50 was < 0.1 µM.

Regarding `CC1CC1COC(=O)Nc1cccc(Cc2nn(-c3cnn(C)c3)ccc2=O)c1` (mixture of isomers) [Example 574, (2-methylcyclopropyl)methyl (3-{[1-(1-methyl-1H-pyrazol-4-yl)-4-oxo-1,4-dihydropyridazin-3-yl]methyl}phenyl)carbamate], the IC50 is < 0.1 µM.

Take `Cn1cc(-n2ccc(=O)c(Cc3ccc4ncc(OCC5CCOC5)cc4c3)n2)cn1` (racemic) [Example 64, rac-1-(1-methyl-1H-pyrazol-4-yl)-3-{[3-(tetrahydrofuran-3-ylmethoxy)quinolin-6-yl]methyl}pyridazin-4(1H)-one]: the IC50 was < 0.1 µM.

On to `Cn1cc(-n2ccc(=O)c(Cc3cccc(-c4ncn(CC5CCOC5)n4)c3)n2)cn1` (racemic) [Example 79, rac-1-(1-methyl-1H-pyrazol-4-yl)-3-{3-[1-(tetrahydrofuran-3-ylmethyl)-1H-1,2,4-triazol-3-yl]benzyl}pyridazin-4(1H)-one], for which the IC50 is < 0.1 µM.

For the compound `CCOC(=O)Nc1cccc(Cc2nn(-c3cnn(C4CCOC4)c3)ccc2=O)c1` (racemic) [Example 97, rac-ethyl [3-({4-oxo-1-[1-(tetrahydrofuran-3-yl)-1H-pyrazol-4-yl]-1,4-dihydropyridazin-3-yl}methyl)phenyl]carbamate], the IC50 is < 0.1 µM.

Regarding `CCCOC(=O)Nc1cccc(Cc2nn(-c3cnn(C4CCOC4)c3)ccc2=O)c1` (racemic) [Example 98, rac-propyl [3-({4-oxo-1-[1-(tetrahydrofuran-3-yl)-1H-pyrazol-4-yl]-1,4-dihydropyridazin-3-yl}methyl)phenyl]carbamate], the IC50 is < 0.1 µM.

For the compound `CC(C)COC(=O)Nc1cccc(Cc2nn(-c3cnn(C4CCOC4)c3)ccc2=O)c1` (racemic) [Example 99, rac-2-methylpropyl [3-({4-oxo-1-[1-(tetrahydrofuran-3-yl)-1H-pyrazol-4-yl]-1,4-dihydropyridazin-3-yl}methyl)phenyl]carbamate], the IC50 is < 0.1 µM.

For `N#Cc1cncc(-n2ccc(=O)c(Cc3cccc(NC(=O)OCC4CCOC4)c3)n2)c1` (racemic) [Example 130, rac-tetrahydrofuran-3-ylmethyl (3-{[1-(5-cyanopyridin-3-yl)-4-oxo-1,4-dihydropyridazin-3-yl]methyl}phenyl)carbamate], the 50% inhibitory concentration (IC50) is < 0.1 µM.

On to `N#Cc1cc(F)cc(-n2ccc(=O)c(Cc3cccc(NC(=O)OCC4CCOC4)c3)n2)c1` (racemic) [Example 131, rac-tetrahydrofuran-3-ylmethyl (3-{[1-(3-cyano-5-fluorophenyl)-4-oxo-1,4-dihydropyridazin-3-yl]methyl}phenyl)carbamate], for which the half-maximal inhibitory concentration (IC50) is < 0.1 µM.

For the compound `N#Cc1ccc(-n2ccc(=O)c(Cc3cccc(NC(=O)OCC4CCOC4)c3)n2)cc1` (racemic) [Example 139, rac-tetrahydrofuran-3-ylmethyl (3-{[1-(4-cyanophenyl)-4-oxo-1,4-dihydropyridazin-3-yl]methyl}phenyl)carbamate], the IC50 was < 0.1 µM.

For the compound `N#Cc1cc(Cl)cc(-n2ccc(=O)c(Cc3cccc(NC(=O)OCC4CCOC4)c3)n2)c1` (racemic) [Example 141, rac-tetrahydrofuran-3-ylmethyl (3-{[1-(3-chloro-5-cyanophenyl)-4-oxo-1,4-dihydropyridazin-3-yl]methyl}phenyl)carbamate], the IC50 is < 0.1 µM.

In the case of `COC(C)c1cnc(-c2cccc(Cc3nn(-c4cnn(C)c4)ccc3=O)c2)nc1` (racemic) [Example 166, rac-3-{3-[5-(1-methoxyethyl)pyrimidin-2-yl]benzyl}-1-(1-methyl-1H-pyrazol-4-yl)pyridazin-4(1H)-one], the IC50 was 0.1 to 1 µM.

For `Cn1cc(-n2ccc(=O)c(Cc3cccc(-c4ncc(C5C=CCO5)cn4)c3)n2)cn1` (racemic) [Example 174, rac-3-{3-[5-(2,5-Dihydrofuran-2-yl)pyrimidin-2-yl]benzyl}-1-(1-methyl-1H-pyrazol-4-yl)pyridazin-4(1H)-one], the IC50 was < 0.1 µM.

Consider `Cn1cc(-n2ccc(=O)c(Cc3cccc(-c4ncc(C5CCCO5)cn4)c3)n2)cn1` (racemic) [Example 198, rac-1-(1-Methyl-1H-pyrazol-4-yl)-3-{3-[5-(tetrahydrofuran-2-yl)pyrimidin-2-yl]benzyl}pyridazin-4(1H)-one], for which the IC50 is < 0.1 µM.

Take `CCOCc1cnc(-c2cccc(C(C)c3nn(-c4cnn(C)c4)ccc3=O)c2)nc1` (racemic) [Example 221, rac-3-(1-{3-[5-(ethoxymethyl)pyrimidin-2-yl]phenyl}ethyl)-1-(1-methyl-1H-pyrazol-4-yl)pyridazin-4(1H)-one]: the IC50 is < 0.1 µM.

Turning to `CCOc1cnc(-c2cccc(C(C)c3nn(-c4cccc(C#N)c4)ccc3=O)c2)nc1` (racemic) [Example 224, rac-3-[3-{1-[3-(5-ethoxypyrimidin-2-yl)phenyl]ethyl}-4-oxopyridazin-1(4H)-yl]benzonitrile], the IC50 is < 0.1 µM.

On to `CCC(c1cccc(-c2ncc(OC)cn2)c1)c1nn(-c2cnn(C)c2)ccc1=O` (racemic) [Example 225, rac-3-{1-[3-(5-methoxypyrimidin-2-yl)phenyl]propyl}-1-(1-methyl-1H-pyrazol-4-yl)pyridazin-4(1H)-one], for which the half-inhibitory concentration (IC50) was < 0.1 µM.

In the case of `COCCOc1cnc(-c2cccc(C(CCO)c3nn(-c4cnn(C)c4)ccc3=O)c2)nc1` (racemic) [Example 253, rac-3-(3-Hydroxy-1-{3-[5-(2-methoxyethoxy)pyrimidin-2-yl]phenyl}propyl)-1-(1-methyl-1H-pyrazol-4-yl)pyridazin-4(1H)-one], the IC50 was 1 to 3 µM.

Turning to `COc1cnc(-c2cccc(C(CO)c3nn(-c4cnn(C)c4)ccc3=O)c2)nc1` (racemic) [Example 254, rac-3-{2-Hydroxy-1-[3-(5-methoxypyrimidin-2-yl)phenyl]ethyl}-1-(1-methyl-1H-pyrazol-4-yl)pyridazin-4(1H)-one], the IC50 lay within 1 to 3 µM.

Turning to `Cn1cc(-n2ccc(=O)c(Cc3cccc(-c4ncc(OCC5CCCO5)cn4)c3)n2)cn1` (racemic) [Example 260, rac-1-(1-methyl-1H-pyrazol-4-yl)-3-{3-[5-(tetrahydrofuran-2-ylmethoxy)pyrimidin-2-yl]benzyl}pyridazin-4(1H)-one], the IC50 was < 0.1 µM.

As for `Cn1cc(-n2ccc(=O)c(Cc3cccc(-c4ncc(OCC5CCOC5)cn4)c3)n2)cn1` (racemic) [Example 266, rac-1-(1-methyl-1H-pyrazol-4-yl)-3-{3-[5-(tetrahydrofuran-3-ylmethoxy)pyrimidin-2-yl]benzyl}pyridazin-4(1H)-one], the IC50 was < 0.1 µM.

Take `Cn1cc(-n2ccc(=O)c(Cc3cccc(-c4ncc(OCC5CCOC(C)(C)C5)cn4)c3)n2)cn1` (racemic) [Example 269, rac-3-(3-{5-[(2,2-dimethyltetrahydro-2H-pyran-4-yl)methoxy]pyrimidin-2-yl}benzyl)-1-(1-methyl-1H-pyrazol-4-yl)pyridazin-4(1H)-one]: the half-maximal inhibitory concentration (IC50) was < 0.1 µM.

Regarding `Cn1cc(-n2ccc(=O)c(Cc3cccc(-c4ncc(OC5CCOC5)cn4)c3)n2)cn1` (racemic) [Example 276, rac-1-(1-methyl-1H-pyrazol-4-yl)-3-{3-[5-(tetrahydrofuran-3-yloxy)pyrimidin-2-yl]benzyl}pyridazin-4(1H)-one], the IC50 is < 0.1 µM.

Turning to `CCn1cc(-n2ccc(=O)c(Cc3cccc(-c4ncc(OCC5CCO5)cn4)c3)n2)cn1` (racemic) [Example 308, rac-1-(1-ethyl-1H-pyrazol-4-yl)-3-{3-[5-(oxetan-2-ylmethoxy)pyrimidin-2-yl]benzyl}pyridazin-4(1H)-one], the IC50 was < 0.1 µM.

For the compound `CCn1cc(-n2ccc(=O)c(Cc3cccc(-c4ncc(OC5CCOC5)cn4)c3)n2)cn1` (racemic) [Example 309, rac-1-(1-ethyl-1H-pyrazol-4-yl)-3-{3-[5-(tetrahydrofuran-3-yloxy)pyrimidin-2-yl]benzyl}pyridazin-4(1H)-one], the IC50 is < 0.1 µM.

As for `CCn1cc(-n2ccc(=O)c(Cc3cccc(-c4ncc(OCC5CCCO5)cn4)c3)n2)cn1` (racemic) [Example 310, rac-1-(1-ethyl-1H-pyrazol-4-yl)-3-{3-[5-(tetrahydrofaran-2-ylmethoxy)pyrimidin-2-yl]benzyl}pyridazin-4(1H)-one], the IC50 was < 0.1 µM.

Turning to `CCn1cc(-n2ccc(=O)c(Cc3cccc(-c4ncc(OCC5COCCO5)cn4)c3)n2)cn1` (racemic) [Example 311, rac-3-{3-[5-(1,4-dioxan-2-ylmethoxy)pyrimidin-2-yl]benzyl}-1-(1-ethyl-1H-pyrazol-4-yl)pyridazin-4(1H)-one], the IC50 is < 0.1 µM.
